Legend:
FK506 nephritis = test: FK506 Nephritis Model (a); format: in vivo, Spontaneously hypertensive rats; conditions: orally twice a day for two weeks; FK506 18 mg/kg daily for 1 week
Procedure: (§1) (a) Spontaneously hypertensive rats weighing 250-300 g were used. FK506 dissolved in olive-oil containing 5% ethanol was given orally to the animals in a daily dose 18 mg/kg for 1 week. After the last dosing of FK506, 24-hours urine was collected for urinalysis. Blood was withdrawn from the abdominal aorta under ether anesthesia 24 hours after the last dosing of FK506, and plasma was separated by centrifugation for biochemical analysis.
The each test compound was dissolved in PEG 400 and given orally by the volume of 1 ml/kg twice a day for two weeks.
(§2) Biochemistry and urinalysis: Urine volume, plasma creatinine, urine creatinine, blood urea nitrogen, plasma sodium, urine sodium, plasma potassium and urine potassium, were measured with an autoanalyzer (TBA-20R Toshiba, OM-6020 Daiichi Kagaku).

[1] = system: Coronary vasospasm induced with vasopressin; test: Vasopressin Induced-vasospasm Model (ST segment depression); format: in vivo, Male Donryu rats; conditions: 10 mg/kg orally 30 minutes before vasopressin 0.2 iu/kg
Procedure: Vasopressin Induced-vasospasm Model
Male Donryu rats, weighing 160-200 g, were anesthetized intraperitoneally with sodium pentobarbital (60 mg/kg) 15 minutes before intravenous administration of vasopressin, and the femoral vein was cannulated with polyethylene tubing (diameter 0.8 mm). Coronary vasospasm was induced with vasopressin (0.2 iu/kg) dissolved in saline through the cannula in the femoral vein. The each test compound (10 mg/kg) was administered orally 30 minutes before the administration of vasopressin. The standard limb lead II of the electrocardiogram was recorded with an electrocardiograph. The depression of ST segment was measured as the difference in the amplitudes of the ST segment after and just before the administration of vasopressin. The amplitudes of ST segment were measured at intervals of 0.5 minutes for 5 minutes after administration of vasopressin.

[2] = Toxicity by repetitive oral administration; format: in vivo, SD rat; conditions: 32 mg/kg once a day orally, 14 consecutive days
Cyclosporin nephritis = test: Cyclosporin Nephritis Model; format: in vivo, Spontaneously hypertensive rats; conditions: 3.2 mg/kg orally twice a day for two weeks; cyclosporin 50 mg/kg daily
Procedure: Cyclosporin Nephritis Model
as §1, with “Spontaneously” for “(a) Spontaneously”, “Cyclosporin” for “FK506”, “50” for “18”, “2 weeks.” for “1 week.”, “cyclosporin,” for “FK506,”, “analysis. The animal were bled to death and kidneys were removed for histopathological examination.” for “analysis.”
The each test compound (3.2 mg/kg) was dissolved in PEG 400 and given orally by the volume of 1 ml/kg twice a day for two weeks.
as §2
Histopathology: The kidneys were fixed in phosphate-buffered 10% formalin and its paraffin specimens were prepared and these sections were stained with hematoxylin.

[3] = system: streptozotocin-induced diabetes mellitus; test: Diabetic Glomerulosclerosis Model (streptozotocin); format: in vivo, Male SD rats
Procedure: Diabetic Glomerulosclerosis Model
6 weeks old Male SD rats were treated with streptozotocin (60 mg/kg i.v.) to induce diabetes mellitus. One week after streptozotocin treatment, test compound, 3.2, 10 mg/kg was started to be orally administered twice a day for 16 weeks.

cGMP-PDE = biological target: T1, cGMP-PDE (Homo sapiens, UniProt O76074); test: cGMP-phosphodiesterase (PDE) Assay (human platelets); format: biochemical
T1 construct: cGMP-PDE was separated from other isozymes in human platelets; from tissue; host or cells: human platelets
Procedure: cGMP-phosphodiesterase (PDE) Assay
cGMP-PDE was separated from other isozymes in human platelets by a modification of the method of Thompson et. al. (Cyclic Nucleotide Phosphodiesterase (PDE), in Methods of Enzymatic analysis, Vol 4, p127-234, 1984). In enzyme inhibition assays, the test compounds were dissolved in 10% DMSO and then diluted with assay buffer (50 mM Tris-HCl, pH 8.0, 0.1 mM dithiothreitol, 2 mM EGTA and 10 u/ml snake venom), at final concentrations ranging from 10^-10 to 10^-6 M. Assays were performed at 0.1 μM substrate ([^3 H]-cGMP) concentration, at 30° C. for 10 minutes using enzyme dilutions which gave 10-20% hydrolysis of substrate. Each assay was initiated by addition of substrate and terminated by addition of anion exchange resin (Dowex 1-X8, 25 μg/mg) followed by centrifugation for 10 minutes (3000 rpm, at 4° C.). Radioactivity of supernatant (^3 H-GMP) was assayed by liquid scintillation counting.

[4] = system: blood flow of corpus spongiosum penis and corpus cavernosum penis; test: Impotence Model (c): penile blood flow in anesthetized beagle; format: in vivo, Male beagle
Procedure: (c) Male beagle weighing 8.0-12.0 kg were anesthetized with pentobarbital sodium (35 mg/kg, i.v.). After tracheotomy, the animal was artificially ventilated using a volume-cycled ventilator. The femoral artery was cannulated for continuous blood pressure and heart rate monitoring. The femoral vein was cannulated for maintenance of anesthesia and administration of tested compound. Two laser-dopper probes were placed in the corpus spongiosum penis and corpus cavernosum penis for recording blood flow. After a period of stabilization of all parameters, tested compound was injected intravenously at a various concentration. […] The increase in blood flow reached a peak value of 55% of baseline and continued for longer than 15 minutes after the administration of said compound 1.0 mg/kg.

corpora cavernosa = test: Effect on Nitroprusside or Ach-induced Relaxation in Isolated Rat Corpora Cavernosa; set-up: species or system Male SD rats; conditions: compound at 10^-7 M
Procedure: (a) Effect of Test Compound on Nitroprusside or Ach-induced Relaxation in Isolated Rat Corpora Cavernosa
Male SD rats were anesthetized with sodium pentobarbital 50 mg/kg intraperitoneally, and the corpora cavernosa was excised. The tunica albuginea was dissected according to the methods described by Italiano et al. (Pharmacological Research, 30, No.4, 1994) and used for in vitro pharmacological study. The erectile tissue strip was placed in a 25 ml organ bath containing Krebs-Ringer solution. The bath was maintained at 37° C. and bubbled with 95% O2 and 5% CO2. The strip was stretched with a resting force of 0.25 g, and isometric contraction were recorded via force development transducer on a recorder.
The strip was equilibrated in the Krebs-Ringer solution for about 60 minutes, and preconstructed by 0.1 mM norepinephrine to ascertain the responsibility of each preparation. The strip was washed several times, and then constricted by 0.1 mM norepinephrine. After getting stable constrictile response to norepinephrine, the first dose-response curve for sodium nitroprusside or Ach was obtained. After washing a few times for 60 minutes, the strip was constricted by norepinephrine again, and the second dose-response curve for sodium nitroprusside or Ach was obtained. The test compound was added 30 minutes before adding norepinephrine.

[5] = 10 mg/kg orally twice a day for 16 weeks
[6] = 3.2, 10 mg/kg orally twice a day for 16 weeks

## CCCc1c(C(=O)C(C)C)c2ccc(C(N)=O)cc2n1Cc1ccccc1Cl [Example 6, 1-(2-chlorobenzyl)-3-isobutyryl-2-propylindole-6-carboxamide]
FK506 nephritis
  recovery in a measure of creatinine clearance (ml/kg/min): more than 45%
  recovery in urinary sodium excretion: more than 50%
[1]
  inhibiting activity (depression of ST segment): more than 50%
[2]
  death on repetitive oral administration: the dead at dose of 32 mg/kg once a day for 14 consecutive days could not be observed
Cyclosporin nephritis
  recovery in a measure of blood urea nitrogen: more than 50%
  recovery in a measure of creatinine clearance (ml/kg/min): more than 40%
[3]; [5]
  4-hydroxyproline contents in renal cortex: perfectly inhibited the increased 4-hydroxyproline contents in renal cortex
  reduction on average of the elimination of protein in urine: 37%
  valiance of RR intervals in cardioelectrography: perfectly recovered the reduced valiance of RR intervals
[3]; [6]
  blood flow in ears: improved the decreased blood flow in ears
  onset of diabetic cataract: retarded the onset of diabetic cataract
  parameters reflecting the abnormalities of peripheral circulation: improved the parameters reflecting the abnormalities of peripheral circulation
  skin temperature on foot pad: raised the decreased skin temperature on foot pad
cGMP-PDE
  IC50: < 0.1 µM
[4]; 1.0 mg/kg intravenous
  duration of increase in blood flow: > 15 min
  peak value of increase in blood flow (of baseline): 55%
[4]; intravenous
  blood flow of corpus spongiosum penis and corpus cavernosum penis: increased in the blood flow of both corpus spongiosum penis and corpus cavernosum penis
  hemodynamic change: without hemodynamic change
Corpora cavernosa
  Ach-induced relaxation of corpora cavernosa: potentiated Ach-induced relaxation of corpora cavernosa
  nitroprusside-induced relaxation of corpora cavernosa: potentiated nitroprusside-induced relaxation of corpora cavernosa
Corpora cavernosa; contraction by 10^-4 M norepinephrine, control 11.0%
  100 μM Ach-induced relaxant response: 18.7%
